Source: patent publication US12527870B2, “Peptide hydrogels for delivery of immunosuppressive drugs and uses thereof” (THE JOHNS HOPKINS UNIVERSITY, priority 2018, dated 2026)
Counter-ions that a name gives are not always drawn.

How the values were obtained:
Type in all cases: physicochemical
[1] = Crystallization of drug within peptide hydrogel (phase-contrast, confocal, polarized light microscopy)
Method: During hydrogel-mediated encapsulation, when used at a loading concentration of 16 mM, tofacitinib free base initially produced an opaque suspension that turned into a transparent hydrogel as the drug dissolved in the self-assembled peptide matrix at 37° C. during the first 2-3 hours. […] Approximately 10 μL of the hydrogel was then placed on a glass slide and covered with a cover slip. Phase-contrast microscopy (EVOS FL Cell Imaging System) and confocal microscopy (LSM 710) were used to characterize the drug aggregates suspended in the hydrogel matrix. Crystallinity of the aggregates was verified from polarized light microscopy at low and high magnification.
Shown in FIGS. 2A-2C are phase contrast images of tofacitinib free base encapsulated within MAX8 peptide hydrogel at the drug concentrations of 16 mM (FIG. 2A), 1.6 mM (FIG. 2B) and blank MAX8 peptide hydrogel (FIG. 2C). Shown in FIGS. 2D-2E are confocal microscopy-generated differential interference contrast images of tofacitinib free base microcrystals dispersed in MAX8 peptide gel network at a drug concentration of 16 mM.

[2] = Ex vivo drug release from peptide hydrogel into buffer
From the text: FIGS. 1A-1D: Release profiles of tofacitinib from peptide hydrogels. (FIG. 1A) Sustained release profile of tofacitinib free base vs burst release of tofacitinib citrate salt from MAX8 peptide hydrogel at early time points. (FIG. 1B) Release profiles of tofacitinib free base and citrate at longer time duration. (FIG. 1C) Variation of release profiles of tofacitinib free base based on the initial amount of drug loading. (FIG. 1D) Release profiles of tofacitinib free base from MAX1 and HLT2 peptide hydrogels. Concentration of tofacitinib free base was 16 mM. In each case, release of the drug was monitored from the hydrogel into an infinite sink (25 mM HEPES, 150 mM NaCl, pH 7.4) at 37° C. Lines are included for visual guidance.
A MAX8 peptide stock solution was prepared in glass vials by dissolving 1 mg of peptide in 50 μL of chilled sterile water. Tofacitinib free base and tofacitinib citrate (purchased from LC Laboratories, Woburn, MA) stock solutions were prepared in spectrophotometric grade DMSO with final concentrations of 100 μg/μL and 160 μg/μL, respectively. Concentration of the stock solution was determined in such a way that would maintain equal ratio of DMSO to HEPES buffered saline (HBS) (v/v) while loading equimolar concentration of tofacitinib free base and citrate into the hydrogel. Required volume of drug stock solution was added into a chilled solution of HBS (2X HBS, 50 mM HEPES, 300 mM NaCl, pH 7.4) to make the final volume as 50 μL. At this point, care was taken to avoid mixing before the peptide stock solution had been transferred to the resulting suspension. Peptide solution was added and samples were then mixed to initiate hydrogelation, resulting in a 1.0 wt % gel of a final total volume of 100 μL containing required amount of loaded drug. Tofacitinib free base was loaded to the final concentrations of 1.6, 3.2 and 16 mM. For tofacitinib citrate salt, only hydrogels with a final concentration of 16 mM loaded drug were considered for drug release studies. Samples were placed in an incubator at 37° C. for 24 hours. After 24 hours, 1 mL of 1X HBS (25 mM HEPES, 150 mM NaCl, pH 7.4) was added to the top of gel. At scheduled time points, the entire volume of buffer above the gel was removed and replaced with fresh buffer. Drug concentration was determined for each removed aliquot as a function of time by measuring absorbance at 290 nm in a UV-VIS spectrophotometer (Agilent 8453) with a standard curve constructed under similar conditions.

[3] = Release profile from MAX8 hydrogel with varying DMSO volume ratio; conditions: 16 mM, DMSO 2-30% by volume
Method: FIGS. 6A-6B: Release profile of tofacitinib from MAX8 hydrogel. (FIG. 6A) Cumulative release profiles of tofacitinib (free base) from MAX8 hydrogel containing different volume ratios of DMSO versus hydrogel. In each case, the tofacitinib stock solution was prepared in DMSO and an increasing volume of the DMSO stock was added while constituting the hydrogel. The total concentration of loaded tofacitinib was constant at 16 mM. Release profile of the drug was monitored from the hydrogel into buffer (25 mM HEPES, 150 mM NaCl, pH 7.4) at 37° C. (FIG. 6B) Release rate of tofacitinib from MAX8 hydrogel containing varying volumes of DMSO during the first 4 hours.
In each case, the tofacitinib stock solution was prepared in DMSO and an increasing volume of the DMSO stock was added while constituting the hydrogel. The total concentration of loaded tofacitinib was constant at 16 mM. The release profile of the drug was monitored from the hydrogel into buffer (25 mM HEPES, 150 mM NaCl, pH 7.4) at 37° C.

[4] = MAX8 hydrogel, 16 mM loading, 37° C.
[5] = MAX8 hydrogel, 16 mM loading, HBS pH 7.4, 37° C.

Row | Compound | crystallization within MAX8 hydrogel [1, 4] | release profile from MAX8 hydrogel, free base vs citrate [2, 5] | effect of decreasing the DMSO concentration on solubility [3] | crystallization within HLT2 hydrogel ([1]; HLT2 hydrogel, 16 mM loading) | crystallization within MAX1 hydrogel ([1]; MAX1 hydrogel, 16 mM loading) | loading concentration needed for crystallization ([1]; MAX8 hydrogel) | time of in situ crystallization after dissolution ([1]; MAX8 hydrogel, 16 mM, 37° C., after the first 2-3 hours) [h] | crystallization within MAX8 hydrogel below 16 mM ([1]; MAX8 hydrogel, loading concentration below 16 mM) | period to show similar cumulative release (over 75%) ([2]; MAX8 hydrogel, 16 mM loading, crystallized state, HBS pH 7.4, 37° C.) [days] | release profile at lower loading compared to 16 mM ([2]; MAX8 hydrogel, 0.48, 1.6 and 3.2 mM loading) | drug released within the first 10 hours ([2]; MAX8 hydrogel, loading 0.48 to 3.2 mM, soluble (not crystallized) drug, into 25 mM HEPES, 150 mM NaCl, pH 7.4, 37° C.)
1 | C[C@@H]1CCN(C(=O)CC#N)C[C@@H]1N(C)c1ncnc2[nH]ccc12 [tofacitinib citrate] | did not crystallize | released faster | – | – | – | – | – | – | – | – | –
2 | C[C@@H]1CCN(C(=O)CC#N)C[C@@H]1N(C)c1ncnc2[nH]ccc12 [tofacitinib free base, 3-((3R,4R)-4-methyl-3-(methyl (7H-pyrrolo[2,3-d]pyrimidin-4-yl)amino)piperidin-1-yl)-3-oxopropanenitrile] | gradually crystallized in situ | slower, more sustained release | reduces the solubility | crystallized | crystallized | above 3.2 mM | ~20 | no visible indication of crystallization | 6 | more rapid release | over 75%
